This note sets out measurements from PubChem BioAssay AID652053 (Broad Institute, 2013).

Structures are written as SMILES.

This assay relates to Huh7 psiCHECK-miR122 Renilla luciferase reporter, 48 h. Nature of the assay: miR-122 inhibitors in Huh7 reporter cells, dose response, cell-based, Huh7 psiCHECK-miR122, Renilla luciferase, cherry-pick (AID 652053).
Turning to `COc1ccc(Cl)cc1NS(=O)(=O)c1cc(Cl)ccc1OC`, the AC40 is 4.45 µM.
For the molecule `Cc1ccc(NS(=O)(=O)c2ccc(-c3cnc(C4CC4)o3)cc2)cc1`, the AC40 is 9.25 µM.
On to `COc1ccc(NS(=O)(=O)c2ccc(OC)c3ccccc23)cn1`, for which the AC40 is 2.67 µM.
The result for `COc1ccc(C(C)(C)C)cc1NS(=O)(=O)c1cccc2cccnc12` reads 2.14 µM.
Then `COc1cccc(NS(=O)(=O)c2c(C)cc(C)cc2C)c1`, with 3.37 µM; and `CCN(Cc1ccccc1)C(=O)c1[nH]c2ccc(OC)cc2c1C`, with 12 µM.
The result for `COc1ccc(S(=O)(=O)Nc2ccc(CC#N)cc2)cc1` reads 11.9 µM; that for `Cc1ccccc1S(=O)(=O)N1CC[C@@H]2[C@@H](CO)N(C)c3ccc(-c4ccccc4)cc3[C@@H]21`, 4.05 µM.
Take `COc1ccc(S(=O)(=O)Nc2ccc(S(=O)(=O)N3CCOCC3)cc2)cc1`: the AC40 is 14.7 µM.
The result for `C[C@H](CO)N1C[C@H](C)[C@H](CN(C)Cc2ccc(C(=O)Nc3ccccc3N)cc2)Oc2ccc(NC(=O)Nc3ccc(F)cc3)cc2CC1=O` reads 9.84 µM; that for `C=CCNc1cc(F)ccc1S(=O)(=O)NCC=C`, 1.03 µM; that for `CC(C)(C)c1ccc(S(=O)(=O)Nc2ccc(C(O)(C(F)(F)F)C(F)(F)F)cc2)cc1`, 5.39 µM.
For the molecule `COCC#Cc1ccc2c(c1)O[C@H](CN(C)Cc1ccc3c(c1)OCO3)[C@@H](C)CN([C@@H](C)CO)S2(=O)=O`, the AC40 was 13.8 µM.
Then `C[C@H]1CN([C@@H](C)CO)C(=O)c2cc(N(C)C)ccc2O[C@H]1CN(C)Cc1ccc(C(=O)Nc2ccccc2N)cc1`, with 5.42 µM; and `COc1ccc(NS(=O)(=O)c2cc(NC(=O)c3ccc(F)cc3)ccc2OC)cc1`, with 3.14 µM.
Then `Cc1noc(C)c1S(=O)(=O)N(C)C[C@@H]1Oc2c(NC(=O)c3cnccn3)cccc2C(=O)N([C@@H](C)CO)C[C@@H]1C`, with 5.81 µM; and `C[C@H](CO)N1C[C@H](C)[C@H](CN(C)CC2CCCCC2)Oc2c(NC(=O)c3cnccn3)cccc2C1=O`, with 1.12 µM.
Then `COc1cc(S(=O)(=O)NCc2cccnc2)c(OC)cc1Br`, with 4.72 µM; and `COc1ccc(S(=O)(=O)Nc2ccc(S(=O)(=O)N3CCCCC3)cc2)cc1C`, with 2.44 µM.
